The values that follow come from patent publication US20240279298A1 (BEIJING TUO JIE BIOPHARMACEUTICAL CO. LTD., priority 2021, published 2024).

Data set [1] in a line: Maximum solubility in phosphate buffer pH 7.4. In kind it is physicochemical. The settings on record: phosphate buffer pH 7.4, room temperature.
The nature of data set [2]: Pharmacokinetics in rats after subcutaneous injection. In kind it is in vivo, SD rats. The settings on record: plasma. Here is the method:
(1) Animals were grouped according to Table 12, and were given free access to water and food before administration.
• Sampling time: 0 min pre-dose, and 2 min, 4 min, 7 min, 10 min, 20 min, 40 min, 1 h and 2 h post-dose. Blood was collected from rats by jugular catheterization.
• 1) 0.2 mL of whole blood was collected at each time point into a centrifuge tube containing EDTA-K2; • 2) The blood samples were centrifuged at 4000 g at 4° C. for 5 min, and separated to give the plasma; • 3) The plasma samples were cryopreserved at −80° C.
The mixture was vortexed for 5 min and centrifuged at a low temperature for 10 min. 100 μL of the supernatant was taken and added to 100 μL of 0.1% formic acid aqueous solution. The mixture was mixed well, and loaded on the instrument for analysis; • Liquid chromatography and mass spectrometry analysis: LC-30A liquid chromatography system (Shimadzu, Japan) and API 5500 liquid chromatography-triple quadrupole mass spectrometer (Analyst Software data processing system, AB Sciex, USA) were used. The chromatographic column was nanomicro Unisil C18aq (4.6 mm×150 mm, 5 μm) chromatographic column; the column temperature was 40° C.; the mobile phase A was 0.1% formic acid aqueous solution, and the mobile phase B was 0.1% formic acid in acetonitrile; the flow rate was 0.5 mL/min; the injection volume was 20 μL; the gradient is shown in Table 13 below. The mass spectrum was obtained using an electrospray ionization (ESI) source, a positive ion analysis mode and a multi reaction monitoring (MRM) scanning mode.
The plasma concentration of the test compounds was measured by HPLC-MS/MS. The plasma concentration-time curve was plotted, and the pharmacokinetic parameters were calculated by PKSolver.

[3] abbreviates: male SD rats, single SC injection, Dasiglucagon 5 mg/kg, 40 5.06 mg/kg.

Each structure is given as a SMILES string. Converted amounts (≈) assume the structure as drawn. Where a SMILES comes first, the peptide text is derived from it. [ ]: non-standard residue; d: D form. Aib = CC(C)(N)C(=O)O

In data set [1], `CC(C)C[C@H](NC(=O)[C@H](Cc1ccc(O)cc1)NC(=O)[C@H](CCCCN)NC(=O)[C@H](CO)NC(=O)[C@H](Cc1ccc(O)cc1)NC(=O)[C@H](CC(=O)O)NC(=O)[C@H](CO)NC(=O)[C@@H](NC(=O)[C@H](Cc1ccccc1)NC(=O)[C@@H](NC(=O)CNC(=O)[C@H](CCC(N)=O)NC(=O)[C@H](CO)NC(=O)[C@@H](N)Cc1c[nH]cn1)[C@@H](C)O)[C@@H](C)O)C(=O)N[C@@H](CC(=O)O)C(=O)N[C@@H](CC(C)C)C(=O)NC(C)(C)C(=O)N[C@@H](CCCNC(=N)N)C(=O)N[C@@H](C)C(=O)N[C@@H](CCC(N)=O)C(=O)N[C@@H](CCC(=O)O)C(=O)N[C@@H](Cc1ccccc1)C(=O)N[C@H](C(=O)N[C@@H](CCC(N)=O)C(=O)N[C@@H](Cc1c[nH]c2ccccc12)C(=O)N[C@@H](CC(C)C)C(=O)N[C@@H](CCC(=O)O)C(=O)N[C@@H](CO)C(=O)N[C@H](C(=O)O)[C@@H](C)O)C(C)C` [Compound 40] (H-HSQGTFTSDYSKYLDL[Aib]RAQEFVQWLEST-OH) gave a solubility at 5 min of 5190 µg/mL (≈ 1520 µM). In data set [2] (setting [3]), the AUClast/D amounted to 176 h·ng/mL per mg/kg and the T1/2 stood at 24.8 min. Also, in data set [2] (male, SD, rat, sc), the Tmax was 7.02 min. Further, in data set [2] (male, SD, rat, sc, male SD rats, single SC injection, Dasiglucagon 5 mg/kg, 40 5.06 mg/kg), the half-life was 24.6 min. In addition, the bioavailability in data set [2] (male, SD, rat, sc, read-out: Bioavailability (F %)) amounted to 88.2%.
